Here are results for ten molecules from patent US9777017B2, “Tricyclic fused thiophene derivatives as JAK inhibitors” (Incyte Corporation, priority 2012, dated 2017).

Holding throughout (assay type): biochemical
One assay has as its target human JAK2 (Homo sapiens (Human), UniProt O60674). Put plainly: In vitro JAK kinase assay (HTRF, phosphorylation of a biotinylated peptide), JAK2. Particulars: 1 mM ATP. More on the design: key to JAK2 IC50 (nM): +indicates an IC50 of ≦100 nM; ++indicates an IC50 of ≦1000 nM; +++indicates an IC50 of ≦2000 nM; ++++indicates an IC50 of >2000 nM; +++++indicates that the IC50 was greater than the highest concentration tested. Here is the method: (§1) Compounds herein were tested for inhibitory activity of JAK targets according to the following in vitro assay described in Park et al., Analytical Biochemistry 1999, 269, 94-104. The catalytic domains of human JAK1 (a.a. 837-1142), JAK2 (a.a. 828-1132) and JAK3 (a.a. 781-1124) were expressed using baculovirus in insect cells and purified. The catalytic activity of JAK1, JAK2 or JAK3 was assayed by measuring the phosphorylation of a biotinylated peptide. The phosphorylated peptide was detected by homogenous time resolved fluorescence (HTRF). IC50s of compounds were measured for each kinase in the 40 μL reactions that contain the enzyme, ATP and 500 nM peptide in 50 mM Tris (pH 7.8) buffer with 100 mM NaCl, 5 mM DTT, and 0.1 mg/mL (0.01%) BSA. For the 1 mM IC50 measurements, ATP concentration in the reactions was 1 mM. Reactions were carried out at room temperature for 1 hour and then stopped with 20 μL 45 mM EDTA, 300 nM SA-APC, 6 nM Eu-Py20 in assay buffer (Perkin Elmer, Boston, Mass.). Binding to the Europium labeled antibody took place for 40 minutes and HTRF signal was measured on a PHERA star plate reader (BMG, Cary, N.C.). The Example compounds were each tested in the Example A assay (see Table 1 for data for the compounds of the examples as tested by the assay of Example A at 1 mM ATP).
On the technique in general: TR-FRET usually uses a lanthanide donor and a delayed reading to cut background.

The test system of assay [1] is human JAK1. Put plainly: In vitro JAK kinase assay (HTRF, phosphorylation of a biotinylated peptide), JAK1. As to conditions: ratio of IC50s, 1 mM ATP. Here is the method: as §1
For assay [2], the target named is human JAK1 (Homo sapiens, UniProt P23458). The assay is described as above. As to conditions: 1 mM ATP. The procedure: as §1

As usually defined, the IC50 is the concentration at which inhibition is half-maximal.

Chain of human JAK2 (O60674 828-1132): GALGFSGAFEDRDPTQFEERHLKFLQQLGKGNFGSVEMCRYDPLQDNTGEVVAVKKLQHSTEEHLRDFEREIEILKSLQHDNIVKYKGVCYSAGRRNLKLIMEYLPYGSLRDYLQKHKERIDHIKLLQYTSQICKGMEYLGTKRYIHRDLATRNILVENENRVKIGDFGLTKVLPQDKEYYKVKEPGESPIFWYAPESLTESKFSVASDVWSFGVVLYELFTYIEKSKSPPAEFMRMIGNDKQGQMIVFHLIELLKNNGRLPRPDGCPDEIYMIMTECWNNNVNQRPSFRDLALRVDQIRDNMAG

Consider `CNS(=O)(=O)C[C@H]1CC[C@H](n2c([C@@H](C)O)nc3cnc4ccsc4c32)CC1` [Example 14, 1-(trans-4-{2-[(1R)-1-hydroxyethyl]-1H-imidazo[4,5-d]thieno[3,2-b]pyridin-1-yl}cyclohexyl)-N-methylmethanesulfonamide], for which the “JAK2 IC50 (nM)” value at human JAK2 is on record as “+++++”. The JAK2/JAK1 with human JAK1 [1] is recorded as more than 5. On human JAK1 [2], this molecule showed an IC50 not above 1000 nM.

Consider `C[C@@H](O)c1nc2cnc3ccsc3c2n1C1CCN(CC(F)(F)F)CC1` [Example 15, (1R)-1-{1-[1-(2,2,2-Trifluoroethyl)piperidin-4-yl]-1H-imidazo[4,5-d]thieno[3,2-b]pyridin-2-yl}ethanol], for which the “JAK2 IC50 (nM)” value at human JAK2 is listed as “+++++”. For the same molecule, the JAK2/JAK1 in the assay with human JAK1 [1] is listed as more than 9. Besides, the IC50 against human JAK1 [2] was not above 2000 nM.

For `C[C@@H](O)c1nc2cnc3ccsc3c2n1C1CCN(CCC#N)CC1` [Example 16, 3-(4-{2-[(1R)-1-Hydroxyethyl]-1H-imidazo[4,5-d]thieno[3,2-b]pyridin-1-yl}piperidin-1-yl)propanenitrile], the values for the IC50 against human JAK2 and against human JAK1 [2] were more than 2000 nM and not above 1000 nM, respectively. Moreover, the JAK2/JAK1 in the assay on human JAK1 [1] is more than 10.

Turning to `N#CC[C@H]1CC[C@H](n2c(CO)nc3cnc4ccsc4c32)CC1` [Example 17, {trans-4-[2-(Hydroxymethyl)-1H-imidazo[4,5-b]thieno[3,2-b]pyridin-1-yl]cyclohexyl}acetonitrile], the IC50 was not above 1000 nM against human JAK2 and not above 100 nM at human JAK1 [2]. Further, the JAK2/JAK1 in the assay on human JAK1 [1] is more than 10.

Consider `CS(=O)(=O)NCc1nc2cnc3ccsc3c2n1[C@H]1CC[C@H](CC#N)CC1` [Example 18, N-({1-[trans-4-(Cyanomethyl)cyclohexyl]-1H-imidazo[4,5-d]thieno[3,2-b]pyridin-2-yl}methyl)methanesulfonamide], for which the results for the IC50 at human JAK2 and at human JAK1 [2] were not above 1000 nM and not above 100 nM, respectively. In the assay on human JAK1 [1], the JAK2/JAK1 is on record as more than 10.

With `C[C@@H](O)c1nc2cnc3ccsc3c2n1[C@H]1CCC(CO)OC1` (stereo partly drawn) [Example 19, (1R)-1-{1-[(3S)-6-(Hydroxymethyl)tetrahydro-2H-pyran-3-yl]-1H-imidazo[4,5-d]thieno[3,2-b]pyridin-2-yl}ethanol], at human JAK2, the “JAK2 IC50 (nM)” value was “+++++”. Besides, the JAK2/JAK1 in the assay on human JAK1 [1] is listed as more than 10. On human JAK1 [2], this molecule registered an IC50 not above 1000 nM.

With `C[C@@H](O)c1nc2cnc3ccsc3c2n1[C@H]1CC[C@H](CC#N)OC1` [Example 20, ((2R,5S)-5-{2-[(1R)-1-Hydroxyethyl]-1H-imidazo[4,5-d]thieno[3,2-b]pyridin-1-yl}tetrahydro-2H-pyran-2-yl)acetonitrile], the IC50 against human JAK2 was not above 1000 nM; at human JAK1 [2] it was not above 100 nM. Moreover, in the assay on human JAK1 [1], the JAK2/JAK1 is given as more than 10.

As for `C[C@@H](O)c1nc2cnc3ccsc3c2n1[C@H]1CC[C@@H](CC#N)OC1` [Example 21, ((2S,5S)-5-{2-[(1R)-1-Hydroxyethyl]-1H-imidazo[4,5-d]thieno[3,2-b]pyridin-1-yl}tetrahydro-2H-pyran-2-yl)acetonitrile], the “JAK2 IC50 (nM)” value on human JAK2 is given as “+++++”. Besides, the JAK2/JAK1 in the assay on human JAK1 [1] is on record as more than 10. Further, at human JAK1 [2], the IC50 was not above 1000 nM.

As for `CS(=O)(=O)NCc1nc2cnc3ccsc3c2n1[C@H]1CC2CCC1C2` (stereo partly drawn) [Example 22, N-((1-((2S)-Bicyclo[2.2.1]heptan-2-yl)-1H-imidazo[4,5-d]thieno[3,2-b]pyridin-2-yl)methyl)methanesulfonamide], the “JAK2 IC50 (nM)” value on human JAK2 was “+++++”. For the same molecule, the JAK2/JAK1 in the assay on human JAK1 [1] is more than 4. The molecule further displayed a concentration for half-maximal inhibition (IC50) against human JAK1 [2] not above 1000 nM.

Regarding `C[C@@H](O)c1cc2cnc3ccsc3c2n1[C@H]1CC[C@H](CC#N)CC1` [Example 23, (trans-4-{7-[(1R)-1-Hydroxyethyl]-8H-pyrrolo[2,3-d]thieno[3,2-b]pyridin-8-yl}cyclohexyl)acetonitrile], the IC50 was not above 1000 nM against human JAK2 and not above 100 nM on human JAK1 [2]. Besides, in the assay with human JAK1 [1], the JAK2/JAK1 is on record as more than 10.
